Like-named read-outs stand apart in the source and are kept apart here.
Test system: hypoxia-inducible endogenous VEGF expression
Assay: Hypoxia-inducible endogenous VEGF expression ELISA in HeLa cells, dose-response EC50 (Table 3)
Assay type: cell-based, human
How it was run: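 HeLa cells kept 24-48 h under hypoxia (1% O2, 5% CO2, nitrogen balance) with or without compound, e.g. seven concentrations; secreted VEGF in conditioned medium quantified by ELISA against a standard curve. Parallel Cell Titer Glo viability under identical conditions excludes cytotoxicity.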

[1] = Homo sapiens, HeLa, read-out: ELISA EC50 μM
[2] = Homo sapiens, HeLa cells, hypoxic conditions (1% O2), 24-48 hours, VEGF in conditioned media, read-out: ELISA EC50
[3] = HeLa cells, hypoxic conditions (1% O2), 24-48 hours, VEGF in conditioned media, read-out: ELISA EC50

| Compound | EC50 [1] [µM] | EC50 [2] [µM] | further results |
| --- | --- | --- | --- |
| CN1CCN(CC(O)COc2ccc(C3c4[nH]c5ccc(Cl)cc5c4CCN3C(=O)Oc3ccc(Cl)cc3)cc2)CC1 (stereo not drawn) [Compound 970] | 0.008 to 0.04 |  |  |
| O=C(Oc1ccc(Cl)cc1)N1CCc2c([nH]c3ccc(Cl)cc23)C1c1ccc(OCC(O)Cn2ccnn2)cc1 (stereo not drawn) [Compound 973] |  | 0.008 to 0.04 |  |
| CS(=O)(=O)Nc1ccc(C2c3[nH]c4ccc(Cl)cc4c3CCN2C(=O)Oc2ccc(Cl)cc2)cc1 (stereo not drawn) [Compound 974] |  | 0.04 to 0.2 |  |
| CN1CCCC(COc2ccc(C3c4[nH]c5ccc(Cl)cc5c4CCN3C(=O)Oc3ccccc3Cl)cc2)C1 (stereo not drawn) [Compound 976] | 0.04 to 0.2 |  |  |
| CC(C)NCC(O)COc1ccc(C2c3[nH]c4ccc(Cl)cc4c3CCN2C(=O)Oc2ccc(Cl)cc2)cc1 (stereo not drawn) [Compound 977] | 0.04 to 0.2 |  |  |
| COc1ccc(OC(=O)N2CCc3c([nH]c4ccc(Cl)cc34)C2c2ccc(OCC3CCCN(C)C3)cc2)cc1 (stereo not drawn) [Compound 981] | 0.04 to 0.2 |  |  |
| O=C(Oc1ccc(Cl)cc1)N1CCc2c([nH]c3ccc(Cl)cc23)C1c1ccc(N2CCCC2)cc1 (stereo not drawn) [Compound 984] |  | 0.2 to 1 |  |
| CC(=O)N1CCN(CCCOc2ccc(C3c4[nH]c5ccc(Cl)cc5c4CCN3C(=O)Oc3ccc(F)cc3)cc2)CC1 (stereo not drawn) [Compound 988] | < 0.008 |  |  |
| O=C(Oc1ccc(F)cc1)N1CCc2c([nH]c3ccc(Cl)cc23)C1c1ccc(OCCCN2CCOCC2)cc1 (stereo not drawn) [Compound 989] | < 0.008 |  |  |
| COCCN(CCCOc1ccc(C2c3[nH]c4ccc(Cl)cc4c3CCN2C(=O)Oc2ccc(F)cc2)cc1)CCOC (stereo not drawn) [Compound 990] | < 0.008 |  |  |
| O=C(Oc1ccc(F)cc1)N1CCc2c([nH]c3ccc(Cl)cc23)C1c1ccc(OCCCN2CCSCC2)cc1 (stereo not drawn) [Compound 991] | 0.04 to 0.2 |  |  |
| COCCN(C)CCCOc1ccc(C2c3[nH]c4ccc(Cl)cc4c3CCN2C(=O)Oc2ccc(F)cc2)cc1 (stereo not drawn) [Compound 992] | 0.04 to 0.2 |  |  |
| CN1CCN(CCCOc2ccc(C3c4[nH]c5ccc(Cl)cc5c4CCN3C(=O)Oc3ccc(F)cc3)cc2)CC1 (stereo not drawn) [Compound 993] | < 0.008 |  |  |
| O=C(Oc1ccc(F)cc1)N1CCc2c([nH]c3ccc(Cl)cc23)C1c1ccc(OCCCn2ccnc2)cc1 (stereo not drawn) [Compound 994] |  |  | EC50 [3]: < 0.008 µM |
| O=C(Oc1ccc(F)cc1)N1CCc2c([nH]c3ccc(Cl)cc23)C1c1ccc(OCCCn2ccnn2)cc1 (stereo not drawn) [Compound 995] |  | < 0.008 |  |
| O=C(Oc1ccc(Cl)cc1)N1CCc2c([nH]c3ccc(Cl)cc23)C1c1ccc(OCC(O)Cn2cncn2)cc1 (stereo not drawn) [Compound 996] |  | < 0.008 |  |
| C=CCOc1ccc(C2c3[nH]c4ccc(Cl)cc4c3CCN2C(=O)Oc2ccc(Cl)cc2)cc1 (stereo not drawn) [Compound 999] |  | < 0.008 |  |

| Compound | EC50 [1] [µM] | EC50 [2] [µM] | further results |
| --- | --- | --- | --- |
| O=C(Oc1ccc(Cl)cc1)N1CCc2c([nH]c3ccc(Cl)cc23)C1c1ccc(OCCCCn2ccnc2)cc1 (stereo not drawn) [Compound 1001] |  |  | EC50 [3]: 0.008 to 0.04 µM |
| COc1ccc(OC(=O)N2CCc3c([nH]c4ccc(Cl)cc34)C2c2ccc(OCCC3CCCN3C)cc2)cc1 (stereo not drawn) [Compound 1005] | 0.2 to 1 |  |  |
| CN1CCCC1CCOc1ccc(C2c3[nH]c4ccc(Cl)cc4c3CCN2C(=O)Oc2ccc(F)cc2)cc1 (stereo not drawn) [Compound 1008] | 0.04 to 0.2 |  |  |
| O=C(Oc1ccc(Cl)cc1)N1CCc2c([nH]c3ccc(Cl)cc23)C1c1ccc(OCCCn2nccn2)cc1 (stereo not drawn) [Compound 1016] |  | > 1 |  |
| O=C(Oc1ccc(F)cc1)N1CCc2c([nH]c3ccc(Cl)cc23)C1c1ccc(OCCCn2nccn2)cc1 (stereo not drawn) [Compound 1017] |  | < 0.008 |  |
| COCCN1CCN(C(=O)COc2ccc(C3c4[nH]c5ccc(Cl)cc5c4CCN3C(=O)Oc3ccc(F)cc3)cc2)CC1 (stereo not drawn) [Compound 1021] | 0.04 to 0.2 |  |  |
| O=C(COc1ccc(C2c3[nH]c4ccc(Cl)cc4c3CCN2C(=O)Oc2ccc(F)cc2)cc1)NCCN1CCOCC1 (stereo not drawn) [Compound 1022] | 0.04 to 0.2 |  |  |
| CCN1CCN(C(=O)COc2ccc(C3c4[nH]c5ccc(Cl)cc5c4CCN3C(=O)Oc3ccc(F)cc3)cc2)CC1 (stereo not drawn) [Compound 1024] | 0.04 to 0.2 |  |  |
| COCCN1CCN(C(=O)COc2ccc(C3c4[nH]c5ccc(Cl)cc5c4CCN3C(=O)Oc3ccc(OC)cc3)cc2)CC1 (stereo not drawn) [Compound 1025] | 0.04 to 0.2 |  |  |
| COc1ccc(OC(=O)N2CCc3c([nH]c4ccc(Cl)cc34)C2c2ccc(OCC(=O)NCCN3CCOCC3)cc2)cc1 (stereo not drawn) [Compound 1026] | 0.008 to 0.04 |  |  |
| COc1ccc(OC(=O)N2CCc3c([nH]c4ccc(Cl)cc34)C2c2ccc(OCC(=O)N3CCOCC3)cc2)cc1 (stereo not drawn) [Compound 1027] |  | 0.04 to 0.2 |  |
| CCN1CCN(C(=O)COc2ccc(C3c4[nH]c5ccc(Cl)cc5c4CCN3C(=O)Oc3ccc(OC)cc3)cc2)CC1 (stereo not drawn) [Compound 1028] | 0.04 to 0.2 |  |  |
| COc1ccc(OC(=O)N2CCc3c([nH]c4ccc(Cl)cc34)C2c2ccc(OCC(=O)N3CCN(CCCN(C)C)CC3)cc2)cc1 (stereo not drawn) [Compound 1029] | > 1 |  |  |
| COc1ccc(OC(=O)N2CCc3c([nH]c4ccc(Cl)cc34)C2c2ccc(OCCCN3CCOCC3)cc2)cc1 (stereo not drawn) [Compound 1030] | 0.008 to 0.04 |  |  |
| COc1ccc(OC(=O)N2CCc3c([nH]c4ccc(Cl)cc34)C2c2ccc(OCCCn3ccnn3)cc2)cc1 (stereo not drawn) [Compound 1031] |  | < 0.008 |  |
| O=C(Oc1ccccc1)N1CCc2c([nH]c3ccc(Cl)cc23)C1c1ccc(OCC2OCCO2)cc1 (stereo not drawn) [Compound 1050] |  | < 0.008 |  |

— patent publication US20120157401A1, “METHODS FOR TREATING NEUROFIBROMATOSIS” (PTC Therapeutics, Inc., priority 2009, published 2012)
